Consider 21 compounds from patent US7947839B2, “Heterocyclic-substituted bis-1,8 naphthalimide compounds, antibody drug conjugates, and methods of use” (Genentech, Inc., priority 2004, dated 2011).

The experiment relates to BT474, H460, HCT116, HUVEC, LNCAP, MCF7, and PC3 cells. Nature of the experiment: free test compound cell-based assay, 7 tumor cell panel (CellTiter-Glo). On the set-up: species or system Human. The conditions noted are these: NSA = no significant activity; for IC50: Homo sapiens. The protocol: Heterocyclic-substituted bis-1,8-naphthalimide compounds of Formula XV in Table 2 were prepared and tested for in vitro activity against a panel of tumor cells (Example 110).
Alternatively, the efficacy of compounds of the invention can be assayed by the following free test compound cell-based assay protocol
• 1. Prepare each cell line (BT474, H460, HCT116, HUVEC, LNCaP, MCF7, and PC3) at 1 k cells/well in separate plates with Complete Media (CM): RPM1 […]+10% FBS (Fetal Bovine Serum)+1% of 200 mM L-Glutamine. Plate number depends on test compounds provided by submitter. • 2. Detach prospective cell lines by first removing the media. When the flask is empty of media, begin rinsing out individual flasks with 5 mL sterile PBS. Move the PBS around within the flask to rinse well. Decant the PBS and add aseptically 5 mL of Accutase/flask. Make sure the Accutase covers the entire flask. • 3. Immediately place the flask(s) into a 37° C. incubator to allow cells to detach for 5-7 minutes. • 4. Post 5-7 minutes, remove flask(s) from the incubator and begin harvesting the detached cells using a serological pipette. Pipette up and down along the back of the flask to facilitate cell detachment. Pipette the Accutase containing cells into a sterile 50 mL conical tube/cell line. Pipette 10 mL of sterile PBS and re-rinse the flask to obtain remaining cells and dispense it into the same 50 mL conical tube/cell line for a total volume of 15 mL/tube/cell line. • 5. After each cell line has been allocated to a designated tube, take out 100 μL/tube/cell line for the cell counts. While the cell counts are being calculated, centrifuge the 50 mL tubes at 1000 rpm at 4° C. with a high brake. • 6. When centrifugation and cell calculations are completed, decant excess liquid and resuspend the cell pellet(s) using 5 mL CM, depending on calculations. • 7. Using a 5 mL syringe and an 18 G ½ needle, strain the cells to help prevent aggregation. Further strain by using a […] cell filter to block out any huge aggregates not broken down by the needle. • 8. After cell straining and filtering, take out calculated amount for a 1 k cells/well into fresh media. Take the media containing cells and load 100 μL/well into a bottom tissue culture treated flat 96 well plate. • 9. Immediately place in a 37° C. incubator overnight to allow the cells to adhere to the tissue culture treated 96 well plates. Day 2: • 1. Test compounds are submitted at 10 mM in sterile DMSO. • 2. DMSO as negative control and a positive standard are used in every assay! • 3. Prepare a 1:1000 fold dilution for each test compound, control, and standard for a 10e-5 M starting point. Do a 1:100 first, then a 1:10. • 4. Prior to diluting samples, vortex the samples and the controls for a homogeneous mixture. Note any sample that will not solubilize and/or stay in suspension. • 5. When the samples are at 10e-5 M, vortex each tube well and spin down fluid to ensure sample remains in tacked. Manual Dilution Protocol: • 1. After the tubes are at a final 1:1000 (10e-5 M) dilution, load the first column of the microtube box with the prospective sample. Load DMSO and positive control in singlets. The test compounds are loaded in duplicates. Load the remaining empty microtube racks with 540 μL of media to prepare for a serial dilution of 1:10. • 2. Agitate and transfer 60 μL from column 1 into successive wells containing 540 μL of media (1:10). Therefore, transfer 60 μL of column 1 into 540 μL of column 2. Resuspend column 2 about 10-15×'s then transfer 60 μL from column 2 to column 3 etc. Automated Dilution Protocol: • 1. Once the tubes are at a final 1:1000 (10e-5 M), load the first column of the microtube box with the prospective sample. Load DMSO and positive control in singlets. The compounds are loaded in duplicates. Load the remaining empty microtube racks manually with 540 μL of media to prepare for the automated serial dilution of 1:10 (see above diagram). • 2. […]

Setting [1] is: average linear IC50 across the 7 tumor cell panel, read-out: Avg.
Setting [2] is: average log IC50 across the 7 tumor cell panel, read-out: Avg. (log IC50) (converted).
The mark [3] stands for this setting: average linear IC50 across the 7 tumor cell panel.
Where [4] appears, read: average log IC50 across the 7 tumor cell panel.

Like-named read-outs stand apart in the source and are kept apart here.

Take `O=C1c2cccc3c(N4CCOCC4)ccc(c23)C(=O)N1CCNCCCNCCN1C(=O)c2cccc3c(N4CCOCC4)ccc(c23)C1=O` [Compound 20, N, N′-(bis-aminoethyl-1,3-propanediamine)-bis-4-morpholino-1,8 naphthalimide]: the IC50 is 0.00257 µM under setting [1] and 0.00257 µM under setting [2].
Take `CN1CCN(c2ccc3c4c(cccc24)C(=O)N(CCNCCCNCCN2C(=O)c4cccc5c(N6CCN(C)CC6)ccc(c45)C2=O)C3=O)CC1` [Compound 24a]: the IC50 under setting [1] was 0.00071 µM and the IC50 under setting [2] is 0.000708 µM.
Regarding `O=C1c2cccc3c(-n4ccnc4)ccc(c23)C(=O)N1CCNCCCNCCN1C(=O)c2cccc3c(-n4ccnc4)ccc(c23)C1=O` [Compound 24b, N, N′-(bis-aminoethyl-1,3-propanediamine)-bis-(4-N-imidazolyl)-1,8 naphthalimide], the IC50 is, setting by setting: under setting [1], 0.00041 µM; under setting [2], 0.000407 µM.
For `CCN(CCCNCCN1C(=O)c2cccc3c(N4CCOCC4)ccc(c23)C1=O)CCN1C(=O)c2cccc3c(N4CCOCC4)ccc(c23)C1=O` [Compound 30a, N, N′-(N-ethyl, bis-aminoethyl-1,3-propanediamine)-bis-4-morpholino-1,8 naphthalimide] the same measures were 0.00398 µM and 0.00398 µM.
As for `O=C(CN1C(=O)c2cccc3c(N4CCOCC4)ccc(c23)C1=O)NCCCNC(=O)CN1C(=O)c2cccc3c(N4CCOCC4)ccc(c23)C1=O` [Compound 34, N, N′-(bis-2-acetamido-1,3-propanediamine)-bis-4-morpholino-1,8 naphtbalimide], the IC50 is, setting by setting: under setting [1], 2.19 µM; under setting [2], 2.19 µM.
Take `O=C(CC(=O)NCCN1C(=O)c2cccc3c(N4CCOCC4)ccc(c23)C1=O)NCCN1C(=O)c2cccc3c(N4CCOCC4)ccc(c23)C1=O` [Compound 35, N, N′-(bis-ethyl, malondiamide)-bis-4-morpholino-1,8 naphthalimide]: under setting [3], the “Avg. (nM)” value is listed as “NSA”. Also, the “Avg. (log IC50)” value under setting [4] was “NSA”.
Consider `O=C(CN1C(=O)c2cccc3c(N4CCOCC4)ccc(c23)C1=O)NCCNCCCN1C(=O)c2cccc3c(N4CCOCC4)ccc(c23)C1=O` [Compound 38], for which the IC50 reads like this: under setting [1], 1.82 µM; under setting [2], 1.82 µM.
Take `O=C(CN1C(=O)c2cccc3c(N4CCOCC4)ccc(c23)C1=O)NCCCNCCN1C(=O)c2cccc3c(N4CCOCC4)ccc(c23)C1=O` [Compound 41]: the IC50 was 0.00339 µM under setting [1] and 0.00339 µM under setting [2].
Take `O=C1c2cccc3c(N4CCOCC4)ccc(c23)C(=O)N1CCCCNCCCN1C(=O)c2cccc3c(N4CCOCC4)ccc(c23)C1=O` [Compound 45, N, N′-(4-aza-octanyl)-bis-4-morpholino-1,8 naphthalimide]: the IC50 is, setting by setting: under setting [1], 1.51 µM; under setting [2], 1.51 µM.
In the case of `O=C1c2cccc3c(N4CCOCC4)ccc(c23)C(=O)N1CCNCCNCCN1C(=O)c2cccc3c(N4CCOCC4)ccc(c23)C1=O` [Compound 54a, N, N′-(bis-aminoethyl-1,2-ethanediamine)-bis-4-morpholino-1,8 naphthalimide], the IC50 is 0.0229 µM under setting [1] and 0.0229 µM under setting [2].
`O=C1c2cccc3c(N4CCOCC4)ccc(c23)C(=O)N1CCOCCOCCN1C(=O)c2cccc3c(N4CCOCC4)ccc(c23)C1=O` [Compound 54b, N, N′-(3,6-dioxaoctanylene)-bis-4-morpholino-1,8 naphthalimide]: the “Avg. (nM)” value under setting [3] is listed as “NSA”. Further, under setting [4], the “Avg. (log IC50)” value is listed as “NSA”.
For the compound `CC(=O)N(CCCNCCN1C(=O)c2cccc3c(N4CCOCC4)ccc(c23)C1=O)CCN1C(=O)c2cccc3c(N4CCOCC4)ccc(c23)C1=O` [Compound 54c, N, N′-(N-acetyl, bis-aminoethyl-1,3-propanediamine)-bis-4-morpholino-1,8 naphthalimide], the IC50 runs as follows: under setting [1], 0.191 µM; under setting [2], 0.191 µM.
Consider `NCC(=O)N(CCCNCCN1C(=O)c2cccc3c(N4CCOCC4)ccc(c23)C1=O)CCN1C(=O)c2cccc3c(N4CCOCC4)ccc(c23)C1=O` [Compound 54d, N, N′-(N-glycyl, bis-aminoethyl-1,3-propanediamine)-bis-4-morpholino-1,8 naphthalimide], for which the IC50 by setting is: under setting [1], 0.324 µM; under setting [2], 0.324 µM.
As for `C[C@H](N)C(=O)N(CCCNCCN1C(=O)c2cccc3c(N4CCOCC4)ccc(c23)C1=O)CCN1C(=O)c2cccc3c(N4CCOCC4)ccc(c23)C1=O` [Compound 54e, N, N′-(N-alanyl, bis-aminoethyl-1,3-propanediamine)-bis-4-morpholino-1,8 naphthalimide], the IC50 under setting [1] was 0.126 µM and the IC50 under setting [2] is 0.126 µM.
As to `CCOC(=O)N(CCCNCCN1C(=O)c2cccc3c(N4CCOCC4)ccc(c23)C1=O)CCN1C(=O)c2cccc3c(N4CCOCC4)ccc(c23)C1=O` [Compound 54f, N, N′-(N-carboethoxy, bis-aminoethyl-1,3-propanediamine)-bis-4-morpholino-1,8 naphthalimide], the IC50 under setting [1] was found to be 0.692 µM and the IC50 under setting [2] was 0.692 µM.
As for `COCCOCCOCC(=O)N(CCCNCCN1C(=O)c2cccc3c(N4CCOCC4)ccc(c23)C1=O)CCN1C(=O)c2cccc3c(N4CCOCC4)ccc(c23)C1=O` [Compound 54g, N, N′-(N-methylethoxyethoxyacetyloxy, bis-aminoethyl-1,3-propanediamine)-bis-4-morpholino-1,8 naphthalimide], the IC50 was 0.692 µM under setting [1] and 0.692 µM under setting [2].
Take `O=C1c2cccc3c(N4CCOCC4)ccc(c23)C(=O)N1CCNCCCN(CCN1C(=O)c2cccc3c(N4CCOCC4)ccc(c23)C1=O)C(=O)C(F)(F)F` [Compound 54h, N, N′-(N-trifluoromethylacetyl, bis-aminoethyl-1,3-propanediamine)-bis-4-morpholino-1,8 naphthalimide]: the IC50 runs as follows: under setting [1], 0.309 µM; under setting [2], 0.309 µM.
With `O=C1c2cccc3c(N4CCOCC4)ccc(c23)C(=O)N1CCNCCCN(CCCS)CCN1C(=O)c2cccc3c(N4CCOCC4)ccc(c23)C1=O` [Compound 55a, N, N′-(N-3-mercaptopropyl, bis-aminoethyl-1,3-propanediamine)-bis-4-morpholino-1,8 naphthalimide], the IC50 by setting is: under setting [1], 0.0575 µM; under setting [2], 0.0575 µM.
Regarding `O=C(CCS)N(CCCNCCN1C(=O)c2cccc3c(N4CCOCC4)ccc(c23)C1=O)CCN1C(=O)c2cccc3c(N4CCOCC4)ccc(c23)C1=O` [Compound 55c, N, N′-(N-3-mercaptopropionyl, bis-aminoethyl-1,3-propanediamine)-bis-4-morpholino-1,8 naphthalimide], the IC50 is 3.71 µM under setting [1] and 3.72 µM under setting [2].
For `O=C1c2cccc3cc([N+](=O)[O-])cc(c23)C(=O)N1CCNCCCNCCN1C(=O)c2cccc3c(N4CCOCC4)ccc(c23)C1=O` [Compound 56a, N, N′-(bis-aminoethyl-1,3-propanediamine)-3-nitro, 4-morpholino-1,8 naphthalimide] the same measures were 0.00162 µM and 0.00162 µM.
For the compound `Nc1ccc2c3c(cccc13)C(=O)N(CCNCCCNCCN1C(=O)c3cccc4c(N5CCOCC5)ccc(c34)C1=O)C2=O` [Compound 56b, N, N′-(bis-aminoethyl-1,3-propanediamine)-4-amino, 4-morpholino-1,8 naphthalimide], the IC50 is 0.0186 µM under setting [1] and 0.0186 µM under setting [2].
